Laboratory results taken from patent publication US20250206761A1, “HALOINDOLE MACROCYCLIC COMPOUNDS FOR THE TREATMENT OF CANCER” (Hoffmann-La Roche Inc., priority 2022, published 2025).

Tests used:
[1] = system: cryopreserved suspension hepatocytes from human; assay: Human hepatocyte stability assay; assay type: in vitro ADME; conditions: for Clearance Category: human hepatocytes; for CL_hep (Human): human hepatocytes 1×10^6 cells/mL, 37° C.
Method: The hepatocyte stability assay measures the rate of disappearance of a compound from incubations with cryopreserved suspension hepatocytes from human. Positive controls, including Midazolam, Raloxifene and Dextromethorphan, are included in every experiment. Incubations consist of […] tested compound and suspension of human hepatocytes (1×10^6 cells/mL) in supplemented Williams' E Medium with 10% FBS and 0.5% Penicillin-streptomycin. The hepatocyte suspension was incubated with intermittent shaking 900 rpm at 37° C., in a 5% CO2 incubator. The reaction was stopped by adding methanol containing internal standard (2 μM Tolbutamide) at 2, 10, 20, 40, 60 and 120 minutes after compound addition, depletion of the parent compound was monitored by LC-MS/MS analysis.

[2] = GSH reaction rates (inherent GSH reactivity); assay type: in vitro ADME; set-up: half-life: dose or concentration left out as unconfirmed; conditions: for half-life: buffer, pH 7.4
Method: For inherent GSH reactivity determination, compounds […] were incubated at 37° C. with and without 5 mM GSH for 0, 0.5, 1, 2, 4 and 6 h in 100 mM potassium phosphate buffer at pH 7.4. At the end of the designated time points, samples were quenched with acetonitrile containing 10 mM N-ethylmaleimide and an internal standard. Quenched samples were centrifuged, and supernatants were analyzed by LC-MS/MS for compound quantification.

conjugation with GSH [2]	half-life [2] [h]	Structure (SMILES)	Clearance Category [1]	CL_hep (Human) [1] [mL/min/kg]	T1/2(hour) in GSH ([2]; 5 mM GSH, 37° C., 100 mM potassium phosphate buffer pH 7.4, up to 6 h)	Remaining at 6 hr in GSH (%) ([2]; 5 mM GSH, 37° C., pH 7.4, 6 hr)
–	–	CCn1c(-c2cc(N3CCN(CC(F)(F)F)CC3)cnc2[C@H](C)OC)c2c3cc(c(F)cc31)-c1csc(n1)C[C@H](NC(=O)[C@H](C(C)C)N1CCC3(CN(C(=O)[C@H](F)Cl)C3)C1=O)C(=O)N1CCC[C@H](N1)C(=O)OCC(C)(C)C2 (atropisomer, axis not shown; (M)) [Example 37, (2S)-2-[2-[(2R)-2-chloro-2-fluoro-acetyl]-5-oxo-2,6-diazaspiro[3.4]octan-6-yl]-N-[(7S,13S)-21-ethyl-24-fluoro-(20M)-20-[2-[(1S)-1-methoxyethyl]-5-[4-(2,2,2-trifluoroethyl)piperazin-1-yl]-3-pyridyl]-17,17-dimethyl-8,14-dioxo-15-oxa-4-thia-9,21,27,28-tetrazapentacyclo[17.5.2.1^2,5.1^9,13.0^22,26]octacosa-1(25),2,5(28),19,22(26),23-hexaen-7-yl]-3-methyl-butanamide]	low (CL_hep (mL/min/kg)<6.96 is low clearance)	2.4	stable (If % depletion after 6 hour incubation is less than 20%, compounds were reported as stable)	100
formed conjugation with GSH	8.9	CC(C)[C@@H](C(=O)N[C@H]1Cc2cc(O)cc(c2)-c2ccc3c(C(C)(C)C#N)cn(c3c2)CC(C)(C)COC(=O)[C@@H]2CCCN(N2)C1=O)N1CCC2(CN(C(=O)CCl)C2)C1=O [RM44, reference compound]	medium (16.24>CL_hep (mL/min/kg)>6.96 is medium clearance)	14.7	–	–
formed conjugation with GSH	4.3	CC(C)[C@@H](C(=O)N[C@H]1Cc2cc(O)cc(c2)-c2ccc3c(C(C)(C)C#N)cn(c3c2)CC(C)(C)COC(=O)[C@@H]2CCCN(N2)C1=O)N1CCCC2(CCN(C(=O)CCl)C2)C1=O (stereo partly shown) [RM351, reference compound]	–	–	–	–
